Data as given in patent US20050197350A1, “Novel quinoline, tetrahydroquinazoline, and pyrimidine derivatives and methods of treatment related to the use thereof” (TAISHO PHARMACEUTICAL CO., LTD., priority 2003, published 2005).

test system: MCH receptors; assay: MCH receptor activity class (method not given); settings: MCH receptor; class by percent of control at 10^-7 M or IC50

Structure (SMILES)	class
CCCCc1ccc(NC(=O)N[C@H]2CC[C@@H](Nc3nc4c(c(N(C)C)n3)CCCC4)CC2)cc1 [compound 1897]	3 (Class 3 The value of percent of control at 10^−7 M was more than 60% or the value of IC50 was more than 200 nM.)
CN(C)c1nc(N[C@H]2CC[C@@H](NC(=O)Nc3ccc(-c4ccccc4)cc3)CC2)nc2c1CCCC2 [compound 1898]	3 (Class 3 The value of percent of control at 10^−7 M was more than 60% or the value of IC50 was more than 200 nM.)
COc1ccc(Cl)cc1NC(=O)N[C@H]1CC[C@@H](Nc2nc3c(c(N(C)C)n2)CCCC3)CC1 [compound 1899]	3 (Class 3 The value of percent of control at 10^−7 M was more than 60% or the value of IC50 was more than 200 nM.)
Cc1ccc(Cl)cc1NC(=O)N[C@H]1CC[C@@H](Nc2nc3c(c(N(C)C)n2)CCCC3)CC1 [compound 1900]	3 (Class 3 The value of percent of control at 10^−7 M was more than 60% or the value of IC50 was more than 200 nM.)
CN(C)c1nc(N[C@H]2CC[C@@H](NC(=O)Nc3cc(Cl)ccc3[N+](=O)[O-])CC2)nc2c1CCCC2 [compound 1901]	3 (Class 3 The value of percent of control at 10^−7 M was more than 60% or the value of IC50 was more than 200 nM.)
Cc1ccc(F)cc1NC(=O)N[C@H]1CC[C@@H](Nc2nc3c(c(N(C)C)n2)CCCC3)CC1 [compound 1902]	3 (Class 3 The value of percent of control at 10^−7 M was more than 60% or the value of IC50 was more than 200 nM.)
CN(C)c1nc(N[C@H]2CC[C@@H](NC(=O)Nc3ccc4c(c3)CCC4)CC2)nc2c1CCCC2 [compound 1903]	3 (Class 3 The value of percent of control at 10^−7 M was more than 60% or the value of IC50 was more than 200 nM.)
CN(C)c1nc(N[C@H]2CC[C@@H](NC(=O)Nc3ccc4c(c3)Cc3ccccc3-4)CC2)nc2c1CCCC2 [compound 1904]	3 (Class 3 The value of percent of control at 10^−7 M was more than 60% or the value of IC50 was more than 200 nM.)
CN(C)c1nc(N[C@H]2CC[C@@H](NC(=O)NC3c4ccccc4-c4ccccc43)CC2)nc2c1CCCC2 [compound 1905]	3 (Class 3 The value of percent of control at 10^−7 M was more than 60% or the value of IC50 was more than 200 nM.)
CN(C)c1nc(N[C@H]2CC[C@@H](NC(=O)NCCc3ccccc3)CC2)nc2c1CCCC2 [compound 1906]	3 (Class 3 The value of percent of control at 10^−7 M was more than 60% or the value of IC50 was more than 200 nM.)
CN(C)c1nc(N[C@H]2CC[C@@H](NC(=O)NC3CCCC3)CC2)nc2c1CCCC2 [compound 1907]	3 (Class 3 The value of percent of control at 10^−7 M was more than 60% or the value of IC50 was more than 200 nM.)
COC(=O)c1ccc(NC(=O)N[C@H]2CC[C@@H](Nc3nc4c(c(N(C)C)n3)CCCC4)CC2)cc1 [compound 1908]	3 (Class 3 The value of percent of control at 10^−7 M was more than 60% or the value of IC50 was more than 200 nM.)
CN(C)c1nc(N[C@H]2CC[C@@H](NC(=O)Nc3ccccc3OC(F)(F)F)CC2)nc2c1CCCC2 [compound 1909, N-(cis-4-{[4-(dimethylamino)-5,6,7,8-tetrahydroquinazolin-2-yl]amino}cyclohexyl)-N′-[2-(trifluoromethoxy)phenyl]urea]	2 (Class 2: The value of percent of control at 10^−7 M was from 40% to 60% or the value of IC′50 was from 50 nM to 200 nM.)
CCCCOC(=O)c1ccccc1NC(=O)N[C@H]1CC[C@@H](Nc2nc3c(c(N(C)C)n2)CCCC3)CC1 [compound 1910]	3 (Class 3 The value of percent of control at 10^−7 M was more than 60% or the value of IC50 was more than 200 nM.)
COC(=O)c1cc(NC(=O)N[C@H]2CC[C@@H](Nc3nc4c(c(N(C)C)n3)CCCC4)CC2)cc(C(=O)OC)c1 [compound 1911]	3 (Class 3 The value of percent of control at 10^−7 M was more than 60% or the value of IC50 was more than 200 nM.)
CN(C)c1nc(N[C@H]2CC[C@@H](NC(=O)Nc3ccc(OC(F)(F)F)cc3)CC2)nc2c1CCCC2 [compound 1912]	3 (Class 3 The value of percent of control at 10^−7 M was more than 60% or the value of IC50 was more than 200 nM.)
CN(C)c1nc(N[C@H]2CC[C@@H](NC(=O)Nc3ccc4c(c3)C(F)(F)OC(F)(F)O4)CC2)nc2c1CCCC2 [compound 1913]	3 (Class 3 The value of percent of control at 10^−7 M was more than 60% or the value of IC50 was more than 200 nM.)

same assay, conditions: class by percent of control at 10^-7 M or IC50

Structure (SMILES)	class
CN(C)c1nc(N[C@H]2CC[C@@H](NC(=O)Nc3cccc(Oc4ccccc4)c3)CC2)nc2c1CCCC2 [compound 1875]	3 (Class 3 The value of percent of control at 10^−7 M was more than 60% or the value of IC50 was more than 200 nM.)
CN(C)c1nc(N[C@H]2CC[C@@H](NC(=O)Nc3ccc(OC(F)F)cc3)CC2)nc2c1CCCC2 [compound 1876]	3 (Class 3 The value of percent of control at 10^−7 M was more than 60% or the value of IC50 was more than 200 nM.)
CCCCOC(=O)c1ccc(NC(=O)N[C@H]2CC[C@@H](Nc3nc4c(c(N(C)C)n3)CCCC4)CC2)cc1 [compound 1877]	3 (Class 3 The value of percent of control at 10^−7 M was more than 60% or the value of IC50 was more than 200 nM.)
CN(C)c1nc(N[C@H]2CC[C@@H](NC(=O)Nc3ccc(C(F)(F)F)cc3)CC2)nc2c1CCCC2 [compound 1878]	3 (Class 3 The value of percent of control at 10^−7 M was more than 60% or the value of IC50 was more than 200 nM.)
CN(C)c1nc(N[C@H]2CC[C@@H](NC(=O)Nc3ccc(SC(F)(F)F)cc3)CC2)nc2c1CCCC2 [compound 1879]	3 (Class 3 The value of percent of control at 10^−7 M was more than 60% or the value of IC50 was more than 200 nM.)
Cc1cc(NC(=O)N[C@H]2CC[C@@H](Nc3nc4c(c(N(C)C)n3)CCCC4)CC2)c([N+](=O)[O-])cc1C [compound 1880]	3 (Class 3 The value of percent of control at 10^−7 M was more than 60% or the value of IC50 was more than 200 nM.)
CN(C)c1nc(N[C@H]2CC[C@@H](NC(=O)Nc3ccc(OCc4ccccc4)cc3)CC2)nc2c1CCCC2 [compound 1881]	3 (Class 3 The value of percent of control at 10^−7 M was more than 60% or the value of IC50 was more than 200 nM.)
CN(C)c1nc(N[C@H]2CC[C@@H](NC(=O)Nc3ccc(Cc4ccccc4)cc3)CC2)nc2c1CCCC2 [compound 1882]	3 (Class 3 The value of percent of control at 10^−7 M was more than 60% or the value of IC50 was more than 200 nM.)
CN(C)c1nc(N[C@H]2CC[C@@H](NC(=O)Nc3ccc(Br)cc3Cl)CC2)nc2c1CCCC2 [compound 1883, N-(4-bromo-2-chlorophenyl)-N′-(cis-4-{[4-(dimethylamino)-5,6,7,8-tetrahydroquinazolin-2-yl]amino}cyclohexyl)urea]	2 (Class 2: The value of percent of control at 10^−7 M was from 40% to 60% or the value of IC′50 was from 50 nM to 200 nM.)
CN(C)c1nc(N[C@H]2CC[C@@H](NC(=O)Nc3ccc(Br)cc3F)CC2)nc2c1CCCC2 [compound 1884]	3 (Class 3 The value of percent of control at 10^−7 M was more than 60% or the value of IC50 was more than 200 nM.)
Cc1cc(NC(=O)N[C@H]2CC[C@@H](Nc3nc4c(c(N(C)C)n3)CCCC4)CC2)ccc1Br [compound 1885]	3 (Class 3 The value of percent of control at 10^−7 M was more than 60% or the value of IC50 was more than 200 nM.)
CN(C)c1nc(N[C@H]2CC[C@@H](NC(=O)Nc3ccc(Cl)cc3[N+](=O)[O-])CC2)nc2c1CCCC2 [compound 1886]	3 (Class 3 The value of percent of control at 10^−7 M was more than 60% or the value of IC50 was more than 200 nM.)
CN(C)c1nc(N[C@H]2CC[C@@H](NC(=O)Nc3ccc(Cl)c(C(F)(F)F)c3)CC2)nc2c1CCCC2 [compound 1887, N-4[4-chloro-3-(trifluoromethyl)phenyl]-N′-(cis-4-{[4-(dimethylamino)-5,6,7,8-tetrahydroquinazolin-2-yl]amino}cyclohexyl)urea]	3 (Class 3 The value of percent of control at 10^−7 M was more than 60% or the value of IC50 was more than 200 nM.)
CCOc1ccc(NC(=O)N[C@H]2CC[C@@H](Nc3nc4c(c(N(C)C)n3)CCCC4)CC2)cc1 [compound 1888]	3 (Class 3 The value of percent of control at 10^−7 M was more than 60% or the value of IC50 was more than 200 nM.)
CN(C)c1nc(N[C@H]2CC[C@@H](NC(=O)Nc3ccc(F)cc3[N+](=O)[O-])CC2)nc2c1CCCC2 [compound 1889]	3 (Class 3 The value of percent of control at 10^−7 M was more than 60% or the value of IC50 was more than 200 nM.)
CN(C)c1nc(N[C@H]2CC[C@@H](NC(=O)Nc3ccc(F)c(C(F)(F)F)c3)CC2)nc2c1CCCC2 [compound 1890]	3 (Class 3 The value of percent of control at 10^−7 M was more than 60% or the value of IC50 was more than 200 nM.)
CCCCCCCOc1ccc(NC(=O)N[C@H]2CC[C@@H](Nc3nc4c(c(N(C)C)n3)CCCC4)CC2)cc1 [compound 1891]	3 (Class 3 The value of percent of control at 10^−7 M was more than 60% or the value of IC50 was more than 200 nM.)
CN(C)c1nc(N[C@H]2CC[C@@H](NC(=O)Nc3ccc(I)cc3)CC2)nc2c1CCCC2 [compound 1892]	3 (Class 3 The value of percent of control at 10^−7 M was more than 60% or the value of IC50 was more than 200 nM.)
COc1ccc(NC(=O)N[C@H]2CC[C@@H](Nc3nc4c(c(N(C)C)n3)CCCC4)CC2)c([N+](=O)[O-])c1 [compound 1893]	3 (Class 3 The value of percent of control at 10^−7 M was more than 60% or the value of IC50 was more than 200 nM.)
Cc1ccc(NC(=O)N[C@H]2CC[C@@H](Nc3nc4c(c(N(C)C)n3)CCCC4)CC2)cc1[N+](=O)[O-] [compound 1894]	3 (Class 3 The value of percent of control at 10^−7 M was more than 60% or the value of IC50 was more than 200 nM.)
Cc1ccc(CNC(=O)N[C@H]2CC[C@@H](Nc3nc4c(c(N(C)C)n3)CCCC4)CC2)cc1 [compound 1895]	3 (Class 3 The value of percent of control at 10^−7 M was more than 60% or the value of IC50 was more than 200 nM.)
CCCCOc1ccc(NC(=O)N[C@H]2CC[C@@H](Nc3nc4c(c(N(C)C)n3)CCCC4)CC2)cc1 [compound 1896]	3 (Class 3 The value of percent of control at 10^−7 M was more than 60% or the value of IC50 was more than 200 nM.)
